By IC50 is commonly meant the concentration at which inhibition is half-maximal.

The target in the first experiment is human IDO (Homo sapiens, UniProt P14902). Nature of the experiment: IDO inhibition enzyme assay (N-formylkynurenine/kynurenine formation read at 490 nm). It is filed as biochemical.
human IDO, sequence (P14902 whole entry): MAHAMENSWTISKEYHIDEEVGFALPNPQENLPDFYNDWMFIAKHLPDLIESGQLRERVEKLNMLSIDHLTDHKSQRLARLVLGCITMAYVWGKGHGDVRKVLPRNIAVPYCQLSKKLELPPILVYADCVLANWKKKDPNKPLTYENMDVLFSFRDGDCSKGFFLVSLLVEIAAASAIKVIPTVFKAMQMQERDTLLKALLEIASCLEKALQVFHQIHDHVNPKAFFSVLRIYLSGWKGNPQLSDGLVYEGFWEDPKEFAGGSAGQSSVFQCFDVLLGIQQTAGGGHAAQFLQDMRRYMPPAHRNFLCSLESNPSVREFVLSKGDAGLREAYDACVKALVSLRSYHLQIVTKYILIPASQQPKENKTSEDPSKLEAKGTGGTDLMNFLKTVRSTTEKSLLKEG
Details: not given
How it is done: Compounds of the instant invention were analyzed for inhibition of human IDO. The assay was conducted according to a literature protocol, with ascorbic acid and methylene blue serving the role of reductant (Littlejohn et al. (2000) Protein Expression and Purification, 19:22-29; Sono et al. (1989) J. Biol. Chem., 264:1616-1622). […] The enzyme assay monitored for formation of N-formylkynurenine by hydrolyzing the formyl group and spectrophotometrically analyzing for the conjugated imine generated from kynurenine and 4-(dimethylamino) benzaldehyde.
Specifically, the inhibition assays were performed in a 96-well microtiter plate as previously described with a small modification (Littlejohn et al. (2000) Prot. Expr. Purif., 19:22-29). Briefly, the reaction mixture contained 50 mM potassium phosphate buffer (pH 6.5), 40 mM ascorbic acid, 400 μg/ml catalase, 20 μM methylene blue and purified recombinant IDO(1) optimized based on its activity. The reaction mixture was added to the substrate, L-tryptophan (L-Trp), and the inhibitor. The L-Trp was serially diluted from 200 to 25 μM and the inhibitors were tested at two concentrations, 200 and 400 μM. The reaction was carried out at 37° C. for 60 minutes and stopped by adding 30% (w/v) trichloroacetic acid. The plate was heated at 65° C. for 15 minutes to convert formylkynurenine to kynurenine and then was spun at 6000 g for 5 minutes. Finally 100 μl supernatant from each well was transferred to a new 96 well plate and mixed with 2% (w/v) p-dimethylamino-benzaldehyde in acetic acid. The yellow color generated from the reaction with kynurenine was measured at 490 nm using a Synergy HT microtiter plate reader (Bio-Tek, Winooski, Vt.). The data was analyzed using Graph Pad Prism 4 software (Graph Pad Software Inc., San Diego, Calif.).
On to `CC1(C)C=CC2=C(O1)C(=O)c1ccccc1C2=O` [Compound 8, 2,2-dimethyl-2H-benzo[g]chromene-5,10-dione], for which the half-maximal inhibitory concentration (IC50) turned out to be 155 nM.

The experiment is the same for the next values; noted with them: purified recombinant IDO(1); L-Trp substrate; ascorbic acid/methylene blue reductant, catalase; pH 6.5; 37° C. for 60 minutes; read-out: IC50.
As to `CC1(C)OC2=C(C(=O)c3ccccc3C2=O)[C@@H](O)[C@@H]1Br` (relative stereo) [Compound 27], the IC50 turned out to be 290 nM.

Consider `C=CCN[C@H]1C2=C(OC(C)(C)[C@H]1O)C(=O)c1ccccc1C2=O` (stereo in doubt) [Compound 17, 4-(allylamino)-3-hydroxy-2,2-dimethyl-3,4-dihydro-2H-benzo[g]chromene-5,10-dione], for which the concentration for half-maximal inhibition (IC50) stood at 183 nM.

For `CCCCN[C@H]1C2=C(OC(C)(C)[C@H]1O)C(=O)c1ccccc1C2=O` (stereo in doubt) [Compound 19, 4-(butylamino)-3-hydroxy-2,2-dimethyl-3,4-dihydro-2H-benzo[g]chromene-5,10-dione], the IC50 came out at 160 nM.

In the case of `CCCCN[C@H]1C2=C(OC(C)(C)[C@@H]1O)C(=O)c1ccccc1C2=O` (stereo in doubt) [Compound 20, 4-(butylamino)-3-hydroxy-2,2-dimethyl-3,4-dihydro-2H-benzo[g]chromene-5,10-dione], the IC50 was 70 nM.

On to `CO[C@H]1C2=C(OC(C)(C)[C@H]1O)C(=O)c1ccccc1C2=O` (stereo in doubt) [Compound 21, 3-hydroxy-4-methoxy-2,2-dimethyl-3,4-dihydro-2H-benzo[g]chromene-5,10-dione], for which the IC50 was 976 nM.

On to `CO[C@H]1C2=C(OC(C)(C)[C@@H]1O)C(=O)c1ccccc1C2=O` (stereo in doubt) [Compound 22, 3-hydroxy-4-methoxy-2,2-dimethyl-3,4-dihydro-2H-benzo[g]chromene-5,10-dione], for which the 50% inhibitory concentration (IC50) turned out to be 3960 nM.

`CC1(C)OC2=C(C(=O)c3ccccc3C2=O)[C@H](O)[C@@H]1O` [Compound 12, (3S,4S)-3,4-dihydroxy-2,2-dimethyl-3,4-dihydro-2H benzo[g]chromene-5,10-dione]: the IC50 is 1500 nM.

For `CC1(C)OC2=C(C(=O)c3ccccc3C2=O)C2OC21` (centres unmarked) [Compound 14, 2,2-dimethyl-9a,9b-dihydro-1aH-benzo[g]oxireno[2,3-c]chromene-4,9(2H,3aH)-dione], the concentration for half-maximal inhibition (IC50) turned out to be 3300 nM.

In the case of `CC1(C)C=CC2=C(O1)C(=O)c1cccc(O)c1C2=O` [Compound 28, 6-hydroxy-2,2-dimethyl-2H-benzo[g]chromene-5,10-dione], the IC50 was determined as 58 nM.

In the case of `COC(=O)C1(C)C=CC2=C(O1)C(=O)c1ccccc1C2=O` (centres unmarked) [Compound 29, methyl 2-methyl-5,10-dioxo-5,10-dihydro-2H-benzo[g]chromene-2-carboxylate], the IC50 stood at 161 nM.
